Source: US8222260B2, “Substituted 6-anilinopurine derivatives as inhibitors of cytokinin oxidase/dehydrogenase and preparations containing these derivatives” (Univerzita Palackego V Olomouci, priority 2007, dated 2012)
“Also recorded” adds a separate entry of the source.

Assays:
[1] = tested on: Human diploid fibroblasts BJ; experiment: Attachment frequency test (adherence of fibroblasts); format: cell-based; conditions: 0-25 μM, attached cells counted after 6 hours, BJ passage 19
Method: Attachment frequency test is one of the methods for evaluation of acute toxicity of compounds against adherent cells. The tested compound is added into the medium with a defined number of trypsinised cells and after certain time the number of attached cells is counted. Human diploid fibroblasts BJ (passage 19) and standard cultivation medium (DMEM with 5 g/l glucose, 2 mM glutamin, 100 U/ml penicillin, 100 μg/ml streptomycin and 10% fetal calf serum) were used. The attached cells were counted after 6 hours. The experiment was done in three repetitions. […] Thus the compound doesn't show acute toxicity against fibroblasts.

[2] = tested on: Human diploid fibroblasts BJ; experiment: Viability of human diploid fibroblasts by MTT assay; format: cell-based; conditions: 0-25 μM, 72 hours, BJ passage 19
Method: MTT is a standard colorimetric assay for measurement of proliferation and survival of the cells. Yellow MTT is reduced into violet formazan in metabolically active cells. The amount of the resulting formazan is measured by spectrophotometry. Human diploid fibroblasts BJ (passage 19) were seeded in 96-well plate (5.000 cells per well). After 6 hours, the cultivation medium (DMEM containing 5 g/l glucose, 2 mM glutamine, 100 U/ml penicillin, 100 μg/ml streptomycin and 10% fetal calf serum) was removed and fresh medium containing a test compound in concentrations 0-25 μM was added. Each concentration was tested in 5 replicates. MTT was added to the cells after 72 hours into final concentration of 0.5 mg/ml. Incubation time was 3 hours.

[3] = tested on: Human diploid fibroblasts SNF25; experiment: In vitro toxicity by evaluation of growth curve; format: cell-based; conditions: 0-12.5 μM, 12 days, SNF25 passage 27
Method: Human diploid fibroblasts SNF25 (passage 27) were seeded in 24-well plate (10.000 cells/well). The cultivation medium (DMEM containing 5 g/l glucose, 2 mM glutamin, 100 U/ml penicillin, 100 μg/ml streptomycin and 10% fetal calf serum) was removed and replaced with the cultivation medium containing the tested compound in concentration range of 0-12.5 μM. Each concentration was tested in triplicate. The cell number was counted during next 12 days.

[4] = tested on: Senescent human diploid fibroblasts SNF25; experiment: Effect on senescent human diploid fibroblasts (cell number); format: cell-based; conditions: 0-12.5 μM, days 7 and 14, SNF25 passage 53
Method: Senescent human diploid fibroblasts SNF25 (passage 53) were seeded in 24-well plate (10.000 cells/well). The cultivation medium (DMEM containing 5 g/l glucose, 2 mM glutamin, 100 U/ml penicillin, […] streptomycin and 10% fetal calf serum) was removed and replaced with the cultivation medium containing test compound in concentration range of 0-12.5 μM. Each concentration was tested in triplicate. The cell numbers were determined on days 7 and 14.

[5] = tested on: Transgenic 35S:AtCKX1 Arabidopsis seedlings; experiment: Foliar spray of CKX overproducing Arabidopsis seedlings grown in soil, phenotype complementation; format: in vivo; conditions: 10 μM sprayed every second day for 1 month
Method: (§1) Transgenic 35S:AtCKX1 Arabidopsis and 35S:AtCKX1 and 35S:AtCKX2 tobacco seedlings grown in soil in the greenhouse were systematically treated with 10 μM of compound 12. Areal parts of the wild type and transgenic seedlings were sprayed every second day for 1 month with aqueous solution of compound 12 containing 0.01% Silwet L-77 wetting agent.

[6] = tested on: 35S:AtCKX1 and 35S:AtCKX2 tobacco seedlings; experiment: Foliar spray of CKX overproducing tobacco seedlings grown in soil, phenotype complementation and root system; format: in vivo
Method: as §1

[7] = tested on: CKX1 overproducing Arabidopsis seedlings; experiment: CKX1 overproducing Arabidopsis seedlings grown in vitro on MS medium, phenotype reversion; format: in vivo; conditions: in vitro on MS medium containing 0.1 μM compound
WT Arabidopsis plants = experiment: Prolonged treatment of WT Arabidopsis plants, flowering; format: in vivo
Method: as §1
Flowers had aborted anthers and were sterile.

[8] = tested on: Human diploid fibroblasts HCA; experiment: Anti-aging activity: senescence-associated beta-galactosidase in human fibroblasts; format: cell-based
Method: In this example, effects of the compounds of this invention on the activity of a senescence biomarker senescence-associated β-galactosidase was studied. Human diploid fibroblasts HCA of various passage levels were used for this purpose. The tested compounds were added to the medium at each passage. After the incubation period, cells were washed with PBS and fixed with 2% formaldehyde and 0.2% glutaraldehyde in PBS. After another wash with PBS, they were incubated with the staining solution comprising potassium ferricyanide (5 mM), potassium ferrocyanide (5 mM), MgCl2 (2 mM), X-gal (5-bromo-4-chloro-3-indolyl-β-D-galactopyranoside) (1 mg/ml), in citric/phosphate buffer (pH 6.0) at 37° C. (without CO2) for at least 1 hour. Following the incubation period, the numbers of cells expressing senescence-associated β-galactosidase (blue cells) were counted using light microscope.

[9] = tested on: Rat C6 glioma (ATCC No. CCL107); experiment: Anti-inflammatory activity: isoproterenol-induced cAMP synthesis (ELISA); format: cell-based; conditions: cAMP after 30 min, induced by (−)-isoproterenol
Method: Anti-inflammatory activity of several of the substituted 6-anilinopurine derivatives of this invention was determined; kinetin was also evaluated as a control. Rat C6 glioma (ATCC No. CCL107) was cultivated in monolayer in serum-free chemically defined medium containing Ham's F10/minimal essential medium (1:1 v/v), 2 mM L-glutamine, 1% (v/v) minimal essential medium vitamins (100×), 1% (v/v) minimal essential medium nonessential amino acids (100×), 100 U/ml penicillin, […], and 30 nM sodium selenite. Incubation was performed at 37° C. in a 100% humidified atmosphere. The assays were performed in the logarithmic growth phase at a density of 2.5×10^5 cells/cm^2. Intracellular cAMP synthesis was induced by addition of 5 mM (−)-isoproterenol; various amounts of test compounds were added at the same time as the (−)-isoproterenol. After 30 min incubation, the cellular amount of cAMP was determined using ELISA (cAMP-enzyme immunoassay kit from Amersham). The I50 values were determined from the dose-response curve in duplicate.

Structure (SMILES): Clc1nc(Nc2ccccc2)c2[nH]cnc2n1 [Compound 1, 2-Chloro-6-anilinopurine]
- Attachment percentage [1]: not significantly influenced
- viability of cells (MTT) [2]: not toxic for human diploid fibroblasts
- growth curve (cell number) [3]: not toxic against human diploid fibroblasts
- cell number (cell survival) [4]: does not exert significant negative effect on cell survival

Structure (SMILES): COc1cccc(Nc2nc(Cl)nc3nc[nH]c23)c1 [Compound 12, 2-Chloro-6-(3-methoxyanilino)purine]
- complementation of wild-type phenotype (release from growth inhibition) [5]: restauration of wild type phenotype
- complementation of wild-type phenotype (release from growth inhibition) ([6]; 35S:AtCKX1 and 35S:AtCKX2 tobacco, 10 μM sprayed every second day for 1 month): restauration of wild type phenotype
- effect of foliar application on root system ([6]; transgenic tobaccos, foliar application, 10 μM): enhancement of the root system
- reversion of WT phenotype [7]: reversion of WT phenotype appeared
- effect on flowering (WT Arabidopsis plants): altered development of flowers and inhibition of fertilisation

Structure (SMILES): c1coc(CNc2ncnc3nc[nH]c23)c1 [Kinetin, 6-furfurylaminopurine, reference compound]
- Senescent Cells (%) HCA passage 25 ([8]; passage 25, cells expressing senescence-associated beta-galactosidase): 3%
- Senescent Cells (%) HCA passage 50 ([8]; passage 50, cells expressing senescence-associated beta-galactosidase): 5%
- Senescent Cells (%) HCA passage 80 ([8]; passage 80, cells expressing senescence-associated beta-galactosidase): 38%
- Effect (anti-inflammatory activity) [9]: inactive; also recorded: Not active
